Data published in patent US20240294519A1, “PYRROLO[2,3-b]PYRIDINE PGDH INHIBITORS AND METHODS OF MAKING AND USING” (EPIRIUM BIO INC., priority 2021, published 2024).
pIC50: −log10 of the molar value.

Assays:
15-PGDH = target: T1, 15-PGDH (Homo sapiens, UniProt P15428); assay: A549 cell based assay: PGE2 in supernatant after IL-1β (HTRF); conditions: A549 cells, fold induction of PGE2, IL-1β plus test article versus IL-1β only
T1 construct: 15-PGDH is highly expressed in resting human lung adenocarcinoma cells (A549); endogenous in cells; host or cells: A549
T1 sequence (P15428 1-266): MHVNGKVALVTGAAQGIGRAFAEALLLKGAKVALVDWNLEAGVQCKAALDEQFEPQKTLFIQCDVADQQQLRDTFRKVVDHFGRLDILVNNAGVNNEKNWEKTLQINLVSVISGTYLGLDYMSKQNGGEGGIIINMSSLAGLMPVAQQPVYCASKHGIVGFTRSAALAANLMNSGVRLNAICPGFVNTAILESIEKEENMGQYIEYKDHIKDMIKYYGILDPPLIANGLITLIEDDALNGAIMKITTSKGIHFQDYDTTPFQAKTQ
Experimental: Cell Based Assay: 15-PGDH is highly expressed in resting human lung adenocarcinoma cells (A549) (Tong et al., 2006), and this cell line was used to assess 15-PGDH inhibition by MF-300Na in vitro.
In this assay, A549 cells are treated with interleukin (IL) 1β, which induces the expression of cycloxygenase-2 and the synthesis of PGE2 (Tong et al., 2006). In the studies evaluating test articles, thirty thousand A549 cells were seeded in 100 μL F12K completed media and incubated for 24 hours at 37° C. with 5% CO2 before being serum-starved for 24 hours. On the day of the experiment, buffer was changed to complete medium, and cells were incubated for 30 minutes with compounds prior to the addition of IL-1β (final concentration of 0.1-0.25 ng/mL) overnight at 37° C. with 5% CO2. Each concentration was run in triplicate. […] The PGE2 in the supernatant was detected and quantified using a Cisbio HTRF technology (Homogeneous Time-Resolved Fluorescence) kit (62P2APEG-62P2APEH) according to the manufacturer's recommendations, quantifying the fold induction of PGE2 of cells treated with IL-1β plus test article, versus treatment with IL-1β only.

15-PGDH/HPGD = target: T2, 15-PGDH/HPGD (Homo sapiens, UniProt P15428); assay: hPGDH inhibitor screening biochemical assay; conditions: 10 nM enzyme, 15 μM PGE2, 0.25 mM NAD, fluorescence ex/em 340/485 nm
T2 construct: purchased R&D System 5660-DH
T2 sequence (P15428 1-266): T1 sequence (P15428 1-266)
In short: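 Recombinant human 15-PGDH (10 nM) was preincubated with compound for 10 min at 37° C in 50 mM Tris-HCl pH 7.5 with 0.01% Tween 20. Reaction with 15 μM PGE2 and 0.25 mM NAD+ ran 10 min at room temperature, read by fluorescence at ex/em 340/485 nm. IC50 was derived from 10-point curves, relative to 1% DMSO.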

| SMILES | PGE2 - HTRF over IL-β induction at 0.001 μM (15-PGDH) | PGE2 - HTRF over IL-β induction at 0.01 μM (15-PGDH) | PGE2 - HTRF over IL-β induction at 0.1 μM (15-PGDH) | PGE2 - HTRF over IL-β induction at 1 μM (15-PGDH) | pIC50 (15-PGDH/HPGD) |
| --- | --- | --- | --- | --- | --- |
| O=C(c1cnc2c(ccn2-c2ccc3nc(N4CCOCC4)nn3c2)c1)N1CCC(F)(F)CC1 [Compound B-97, (4,4-difluoropiperidin-1-yl)(1-(2-morpholino [1,2,4]triazolo [1,5-a]pyridin-6-yl)-1H-pyrrolo [2,3-b]pyridin-5-yl)methanone] | 1.08 | 2.42 | 4.98 | 5.37 | – |
| C[C@H]1CCCN(C(=O)c2cnc3c(ccn3-c3cnn(CC(F)(F)F)c3)c2)C1 [Compound B-100] | 0.79 | 1.78 | 4.49 | 5.26 | – |
| Cc1cn2cc(-n3ccc4cc(C(=O)N5CCC(F)(F)CC5)cnc43)ccc2n1 [Compound B-103] | 1.15 | 1.34 | 5.1 | 6.3 | – |
| O=C(c1cnc2c(ccn2-c2ccc(N3C(=O)CCC3=O)cc2)c1)N1CCC(F)(F)CC1 [Compound B-106] | 0.90 | 0.81 | 0.86 | 2.8 | – |
| O=C(c1cnc2c(ccn2-c2ccc(-n3cnnc3)cc2)c1)N1CCC(F)(F)CC1 [Compound B-107] | 1.73 | 1.31 | 2.12 | 3.51 | – |
| C[C@H]1CCCN(C(=O)c2cnc3c(ccn3-c3ccc4nc(N(C)C)nn4c3)c2)C1 [Compound B-108] | 1.57 | 2.98 | 3.46 | 3.26 | – |
| O=C(c1cnc2c(ccn2-c2ccc(N3CCOC3=O)nc2)c1)N1CCCC(F)(F)C1 [Compound B-115] | 4.36 | 3.07 | 4.92 | 5.24 | – |
| O=C(O)c1ccc(-n2ccc3cc(C(=O)N4CCC(F)(F)CC4)cnc32)s1 [Compound B-118] | 1.48 | 1.55 | 1 | 1.02 | – |
| O=C(c1cnc2c(ccn2-c2ccc(-c3nc[nH]n3)s2)c1)N1CCC(F)(F)CC1 [Compound B-119] | 1.01 | 1.2 | 2.87 | 3.06 | – |
| Cc1nc2ccc(-n3ccc4cc(C(=O)N5CCC(F)(F)CC5)cnc43)cn2n1 [Compound B-120] | 1.34 | 1.28 | 4.15 | 6.26 | – |
| N#Cc1cc(-c2nnc[nH]2)cc(-n2ccc3cc(C(=O)N4CCC(F)(F)CC4)cnc32)c1 [Compound B-274] | – | – | – | – | > 7.00 |
| CCOC(=O)Nc1cncc(-n2ccc3cc([S+]([O-])C4CC4)cnc32)c1 (stereo not shown) [Compound B-315] | – | – | – | – | > 7.00 |
| CCOC(=O)Nc1cncc(-n2ccc3cc([S+]([O-])C4CCCC4)cnc32)c1 (stereo not shown) [Compound B-316] | – | – | – | – | > 7.00 |
